In ChEMBL document CHEMBL3882729, “Receptor-type kinase modulators and methods of use” (2009):

Key:
[1] = target: T1, Ephrin type-B receptor 4 (Homo sapiens, UniProt P54760); test: Inhibition of recombinant human N-terminal His6-tagged EphB4 kinase domain (E605 to E890 residues) expressed in baculovirus using poly-AEKY as substrate after 150 mins in presence of gamma33P-ATP by liquid scintillation spectrometry
T1 sequence (P54760 whole entry): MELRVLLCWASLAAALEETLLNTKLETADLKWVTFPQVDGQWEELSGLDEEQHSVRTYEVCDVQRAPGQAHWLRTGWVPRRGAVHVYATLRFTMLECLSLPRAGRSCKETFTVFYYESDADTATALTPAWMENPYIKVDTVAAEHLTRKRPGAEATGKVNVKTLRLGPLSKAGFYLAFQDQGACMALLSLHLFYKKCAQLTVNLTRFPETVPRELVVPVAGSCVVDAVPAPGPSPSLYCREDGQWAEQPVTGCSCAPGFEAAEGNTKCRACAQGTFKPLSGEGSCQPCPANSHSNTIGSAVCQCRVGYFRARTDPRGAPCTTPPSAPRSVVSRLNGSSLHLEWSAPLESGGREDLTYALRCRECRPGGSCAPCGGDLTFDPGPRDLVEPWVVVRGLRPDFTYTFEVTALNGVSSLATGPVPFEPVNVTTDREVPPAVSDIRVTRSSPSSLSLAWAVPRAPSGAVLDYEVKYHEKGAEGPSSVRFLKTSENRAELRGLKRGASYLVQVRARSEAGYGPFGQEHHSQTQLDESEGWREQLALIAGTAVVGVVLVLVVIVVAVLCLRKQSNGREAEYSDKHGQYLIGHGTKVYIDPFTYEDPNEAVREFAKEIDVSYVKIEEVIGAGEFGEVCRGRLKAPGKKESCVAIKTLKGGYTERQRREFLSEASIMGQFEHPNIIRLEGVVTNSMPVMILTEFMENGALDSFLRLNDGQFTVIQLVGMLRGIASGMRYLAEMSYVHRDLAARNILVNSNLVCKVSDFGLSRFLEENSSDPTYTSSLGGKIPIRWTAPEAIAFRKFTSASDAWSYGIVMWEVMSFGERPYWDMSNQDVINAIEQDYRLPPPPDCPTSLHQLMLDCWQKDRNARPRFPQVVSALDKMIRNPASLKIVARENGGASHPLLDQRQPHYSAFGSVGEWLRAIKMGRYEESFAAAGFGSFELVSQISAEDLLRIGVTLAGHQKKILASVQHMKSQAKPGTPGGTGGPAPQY

[2] = target: Vascular endothelial growth factor receptor 2 (Homo sapiens, UniProt P35968); test: Inhibition of recombinant human N-terminal GST-fused KDR (D807 to V1356 residues) expressed in baculovirus infected […] insect Sf9 cells using poly-EY as substrate after 240 mins by luciferase coupled chemiluminescence assay
Vascular endothelial growth factor receptor 2, sequence (P35968 whole entry, the tested form may be a part): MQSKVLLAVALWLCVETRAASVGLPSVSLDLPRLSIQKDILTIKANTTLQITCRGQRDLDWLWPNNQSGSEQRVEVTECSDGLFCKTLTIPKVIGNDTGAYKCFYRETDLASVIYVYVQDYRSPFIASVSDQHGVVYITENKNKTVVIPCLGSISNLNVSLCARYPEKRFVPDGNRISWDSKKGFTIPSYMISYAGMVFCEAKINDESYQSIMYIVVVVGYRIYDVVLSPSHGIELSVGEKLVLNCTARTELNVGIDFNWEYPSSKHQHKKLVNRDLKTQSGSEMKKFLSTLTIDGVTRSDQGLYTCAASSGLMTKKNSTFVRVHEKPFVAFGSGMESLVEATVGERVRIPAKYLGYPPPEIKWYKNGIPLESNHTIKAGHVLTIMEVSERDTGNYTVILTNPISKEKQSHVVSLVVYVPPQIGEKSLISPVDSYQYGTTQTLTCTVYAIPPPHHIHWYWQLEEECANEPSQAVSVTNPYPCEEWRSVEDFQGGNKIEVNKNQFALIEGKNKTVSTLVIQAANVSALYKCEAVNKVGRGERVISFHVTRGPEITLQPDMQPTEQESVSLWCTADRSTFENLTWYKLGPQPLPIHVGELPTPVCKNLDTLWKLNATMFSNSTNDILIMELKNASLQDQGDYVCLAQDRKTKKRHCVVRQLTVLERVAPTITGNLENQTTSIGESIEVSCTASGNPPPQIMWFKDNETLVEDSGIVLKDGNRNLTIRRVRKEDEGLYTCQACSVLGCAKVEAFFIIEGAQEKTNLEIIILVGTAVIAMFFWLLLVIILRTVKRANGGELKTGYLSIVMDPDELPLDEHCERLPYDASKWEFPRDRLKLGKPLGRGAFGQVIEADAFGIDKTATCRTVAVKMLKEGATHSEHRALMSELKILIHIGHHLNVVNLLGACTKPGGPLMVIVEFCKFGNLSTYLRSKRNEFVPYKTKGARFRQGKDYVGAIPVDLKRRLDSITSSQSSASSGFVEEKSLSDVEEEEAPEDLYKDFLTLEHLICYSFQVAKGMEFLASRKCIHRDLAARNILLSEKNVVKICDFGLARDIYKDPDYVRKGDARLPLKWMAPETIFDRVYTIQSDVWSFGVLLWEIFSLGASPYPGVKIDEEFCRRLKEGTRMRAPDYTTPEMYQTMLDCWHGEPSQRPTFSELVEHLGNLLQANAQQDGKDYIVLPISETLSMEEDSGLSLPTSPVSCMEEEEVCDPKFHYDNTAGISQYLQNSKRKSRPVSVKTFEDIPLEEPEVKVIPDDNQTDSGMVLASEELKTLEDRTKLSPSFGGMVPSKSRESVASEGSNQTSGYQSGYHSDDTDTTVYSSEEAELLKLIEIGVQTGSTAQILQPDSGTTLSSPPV

[3] = target: Ephrin type-A receptor 2 (Homo sapiens, UniProt P29317); test: Inhibition of recombinant human N-terminal His6-tagged EphA2 (N598 to R890 residues) expressed in baculovirus using poly-EY as substrate after 180 mins by luciferase coupled chemiluminescence assay
Ephrin type-A receptor 2, sequence (P29317 whole entry, the tested form may be a part): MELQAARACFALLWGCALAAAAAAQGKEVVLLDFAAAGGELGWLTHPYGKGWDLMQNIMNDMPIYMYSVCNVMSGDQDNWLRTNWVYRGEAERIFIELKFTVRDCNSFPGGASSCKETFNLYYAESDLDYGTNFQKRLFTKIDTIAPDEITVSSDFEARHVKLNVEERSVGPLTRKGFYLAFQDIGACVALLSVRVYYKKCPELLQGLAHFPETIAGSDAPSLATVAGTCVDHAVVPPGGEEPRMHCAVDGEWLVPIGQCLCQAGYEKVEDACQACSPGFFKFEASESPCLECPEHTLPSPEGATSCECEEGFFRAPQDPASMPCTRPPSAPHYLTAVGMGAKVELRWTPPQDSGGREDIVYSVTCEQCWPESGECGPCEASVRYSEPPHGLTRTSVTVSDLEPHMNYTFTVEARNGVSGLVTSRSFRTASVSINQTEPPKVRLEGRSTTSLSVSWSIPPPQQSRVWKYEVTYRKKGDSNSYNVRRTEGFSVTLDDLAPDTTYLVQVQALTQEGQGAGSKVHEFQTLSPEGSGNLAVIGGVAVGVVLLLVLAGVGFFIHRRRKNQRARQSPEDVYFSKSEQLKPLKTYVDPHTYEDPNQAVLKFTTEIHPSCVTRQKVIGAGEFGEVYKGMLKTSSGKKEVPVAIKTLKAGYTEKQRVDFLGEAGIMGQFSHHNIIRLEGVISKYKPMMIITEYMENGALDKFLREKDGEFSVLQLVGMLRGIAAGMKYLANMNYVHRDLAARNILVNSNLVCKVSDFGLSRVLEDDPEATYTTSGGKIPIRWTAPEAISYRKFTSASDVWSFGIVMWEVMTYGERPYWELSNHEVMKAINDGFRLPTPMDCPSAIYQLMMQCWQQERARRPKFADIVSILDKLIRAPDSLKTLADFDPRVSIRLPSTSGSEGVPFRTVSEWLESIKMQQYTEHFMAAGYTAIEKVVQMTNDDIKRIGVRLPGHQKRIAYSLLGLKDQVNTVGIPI

[4] = target: Receptor tyrosine-protein kinase erbB-2 (Homo sapiens, UniProt P04626); test: Inhibition of recombinant human N-terminal GST His6-tagged thrombin cleavage site-fused ErbB2 kinase domain (Q679 to V1255 residues) expressed in baculovirus infected insect Sf9 cells using biotinylated poly-EY as substrate after 60 mins by alphascreen assay
Receptor tyrosine-protein kinase erbB-2, sequence (P04626 whole entry, the tested form may be a part): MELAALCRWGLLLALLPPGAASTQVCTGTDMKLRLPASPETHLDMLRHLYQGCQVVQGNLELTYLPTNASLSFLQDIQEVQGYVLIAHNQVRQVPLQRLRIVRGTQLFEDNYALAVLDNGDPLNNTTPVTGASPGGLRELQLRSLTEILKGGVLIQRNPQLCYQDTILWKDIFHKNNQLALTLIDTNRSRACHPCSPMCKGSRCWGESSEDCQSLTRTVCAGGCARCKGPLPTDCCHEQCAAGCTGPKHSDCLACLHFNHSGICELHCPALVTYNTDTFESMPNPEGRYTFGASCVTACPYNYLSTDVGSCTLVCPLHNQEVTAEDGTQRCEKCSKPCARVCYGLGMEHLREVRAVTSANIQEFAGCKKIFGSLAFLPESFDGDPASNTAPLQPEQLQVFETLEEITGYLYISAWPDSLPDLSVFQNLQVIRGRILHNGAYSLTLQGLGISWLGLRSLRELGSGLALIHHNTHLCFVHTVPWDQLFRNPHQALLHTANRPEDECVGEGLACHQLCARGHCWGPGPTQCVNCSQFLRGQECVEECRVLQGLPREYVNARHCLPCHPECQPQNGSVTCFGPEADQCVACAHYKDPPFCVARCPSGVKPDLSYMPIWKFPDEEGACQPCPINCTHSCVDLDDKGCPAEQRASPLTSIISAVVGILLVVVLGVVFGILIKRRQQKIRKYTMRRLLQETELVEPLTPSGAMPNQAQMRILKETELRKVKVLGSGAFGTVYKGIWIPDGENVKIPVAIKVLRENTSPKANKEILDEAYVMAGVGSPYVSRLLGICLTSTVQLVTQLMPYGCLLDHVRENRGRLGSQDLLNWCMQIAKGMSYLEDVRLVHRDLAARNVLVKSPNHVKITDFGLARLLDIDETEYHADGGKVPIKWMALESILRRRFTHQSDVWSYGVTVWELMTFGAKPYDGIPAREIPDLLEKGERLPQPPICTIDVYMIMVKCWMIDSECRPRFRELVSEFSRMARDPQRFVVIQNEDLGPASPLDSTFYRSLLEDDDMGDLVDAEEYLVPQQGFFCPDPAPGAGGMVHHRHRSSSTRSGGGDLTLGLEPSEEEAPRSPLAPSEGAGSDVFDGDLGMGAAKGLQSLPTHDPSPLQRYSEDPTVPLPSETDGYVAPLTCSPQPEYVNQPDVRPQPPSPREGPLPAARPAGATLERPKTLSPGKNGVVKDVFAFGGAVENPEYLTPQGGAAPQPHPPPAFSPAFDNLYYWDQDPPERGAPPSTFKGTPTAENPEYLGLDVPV

IC50 [1] | IC50 [2] | IC50 [3] | IC50 [4] | SMILES
50 to 1000 nM | 50 to 1000 nM | 50 to 1000 nM | – | COc1cc2c(Nc3ccc(Br)cc3C)ncnc2cc1OCC1CN(C)CCO1 (stereo not given)
50 to 1000 nM | 50 to 1000 nM | 50 to 1000 nM | – | CCCCS(=O)(=O)N1CCOC(COc2cc3ncnc(Nc4ccc(Cl)c(Cl)c4)c3cc2OC)C1 (stereo not given)
50 to 1000 nM | 50 to 1000 nM | 1000 to 20000 nM | – | CCC(C(=O)N1CCOC(COc2cc3ncnc(Nc4ccc(Cl)c(Cl)c4)c3cc2OC)C1)c1ccccc1 (stereo not given)
< 50 nM | < 50 nM | < 50 nM | – | COc1cc2c(Nc3ccc(Cl)c(Cl)c3)ncnc2cc1OCC1CN(C(=O)CC(=O)O)CCO1 (stereo not given)
50 to 1000 nM | 50 to 1000 nM | 50 to 1000 nM | – | COc1cc2c(Nc3ccc(Cl)c(Cl)c3)ncnc2cc1OCC1CN(C/C=C/Br)CCO1 (stereo not given)
< 50 nM | 50 to 1000 nM | 50 to 1000 nM | – | COc1cc2c(Nc3ccc(Cl)c(Br)c3)ncnc2cc1OCC1CN(C)CCO1 (stereo not given)
50 to 1000 nM | 50 to 1000 nM | 50 to 1000 nM | – | COC(=O)CCC(=O)N1CCOC(COc2cc3ncnc(Nc4ccc(Cl)c(Cl)c4)c3cc2OC)C1 (stereo not given)
50 to 1000 nM | 50 to 1000 nM | 50 to 1000 nM | – | COc1cc2c(Nc3ccc(Cl)c(Cl)c3)ncnc2cc1OCC1CN(S(=O)(=O)Cc2ccccc2)CCO1 (stereo not given)
50 to 1000 nM | 50 to 1000 nM | 1000 to 20000 nM | – | COc1cc2c(Nc3ccc(Cl)c(Cl)c3)ncnc2cc1OCC1CN(C(=O)c2cccc3ccccc23)CCO1 (stereo not given)
50 to 1000 nM | 50 to 1000 nM | 50 to 1000 nM | – | COc1cc2c(Nc3ccc(Cl)c(C)c3)ncnc2cc1OCC1CN(C)CCO1 (stereo not given)
50 to 1000 nM | 50 to 1000 nM | 50 to 1000 nM | – | COc1cc2c(Nc3ccc(Cl)c(Cl)c3)ncnc2cc1OCC1CN(C(=O)C(C)(C)C)CCO1 (stereo not given)
50 to 1000 nM | 50 to 1000 nM | 50 to 1000 nM | – | COc1cc2c(Nc3ccc(Br)cc3Cl)ncnc2cc1OCC1CN(C)CCO1 (stereo not given)
50 to 1000 nM | < 50 nM | 50 to 1000 nM | – | COc1cc2c(Nc3ccc(Cl)c(Cl)c3)ncnc2cc1OCC1CN(CC2CCCCC2)CCCO1 (stereo not given)
< 50 nM | 50 to 1000 nM | 50 to 1000 nM | – | COCCOc1cc2c(Nc3ccc(Cl)c(Cl)c3)ncnc2cc1OCC1CN(C)CCO1 (stereo not given)
50 to 1000 nM | < 50 nM | – | 50 to 1000 nM | COc1cc2c(Nc3ccc(Cl)c(Cl)c3)ncnc2cc1OCC1CNCC(C)(C)O1 (stereo not given)
50 to 1000 nM | 50 to 1000 nM | 50 to 1000 nM | – | COc1cc2c(Nc3ccc(Cl)c(Cl)c3)ncnc2cc1OCC1CN(CCC2CCCCC2)CCCO1 (stereo not given)
< 50 nM | < 50 nM | – | < 50 nM | CCOc1cc2c(Nc3ccc(Cl)c(Cl)c3)ncnc2cc1OCC1CNCCO1 (stereo not given)
50 to 1000 nM | 50 to 1000 nM | 50 to 1000 nM | – | COc1cc2c(Nc3ccc(Cl)c(Cl)c3)ncnc2cc1OCC1CN(C(=O)CCc2ccccc2)CCO1 (stereo not given)
50 to 1000 nM | 50 to 1000 nM | 50 to 1000 nM | – | CCC(CC)CN1CCCOC(COc2cc3ncnc(Nc4ccc(Cl)c(Cl)c4)c3cc2OC)C1 (stereo not given)
50 to 1000 nM | 50 to 1000 nM | – | 50 to 1000 nM | COc1cc2c(Nc3ccc(Cl)c(Cl)c3)ncnc2cc1OCC1CN(C)CC(C)(C)O1 (stereo not given)
50 to 1000 nM | 50 to 1000 nM | 50 to 1000 nM | – | COc1cc2c(Nc3ccc(Cl)c(Cl)c3)ncnc2cc1OCC1CN(C(=O)c2c(F)ccc(F)c2F)CCO1 (stereo not given)
50 to 1000 nM | 50 to 1000 nM | 50 to 1000 nM | – | CCC1(C)CN(C)CC(COc2cc3ncnc(Nc4ccc(Cl)c(Cl)c4)c3cc2OC)O1 (stereo not given)
50 to 1000 nM | 50 to 1000 nM | 50 to 1000 nM | – | CCCCCC(=O)N1CCOC(COc2cc3ncnc(Nc4ccc(Cl)c(Cl)c4)c3cc2OC)C1 (stereo not given)
50 to 1000 nM | 50 to 1000 nM | 50 to 1000 nM | – | COc1cc2c(Nc3ccc(Cl)c(Cl)c3)ncnc2cc1OCC1CN(CC=C(C)C)CCO1 (stereo not given)
50 to 1000 nM | 50 to 1000 nM | 1000 to 20000 nM | – | COc1cc2c(Nc3ccc(Cl)c(Cl)c3)ncnc2cc1OCC1CN(S(=O)(=O)c2ccccc2)CCO1 (stereo not given)

IC50 [1] | IC50 [2] | IC50 [3] | IC50 [4] | SMILES
50 to 1000 nM | 1000 to 20000 nM | 50 to 1000 nM | – | CCN1CCN(CC)C(COc2cc3ncnc(Nc4ccc(Cl)c(Cl)c4)c3cc2OC)C1 (stereo not given)
50 to 1000 nM | < 50 nM | 50 to 1000 nM | – | COc1cc2c(Nc3ccc(Br)cc3F)ncnc2cc1OCC1CCN(C(N)=NC#N)CC1
50 to 1000 nM | 50 to 1000 nM | 1000 to 20000 nM | – | COc1cc2c(Nc3ccc(Cl)c(Cl)c3)ncnc2cc1OCC1CN(C(=O)Cc2ccc(Cl)cc2)CCO1 (stereo not given)
50 to 1000 nM | 50 to 1000 nM | 50 to 1000 nM | – | COc1cc2c(Nc3ccc(Cl)c(Cl)c3)ncnc2cc1OCC1CN(C(=O)CCC(C)C)CCO1 (stereo not given)
50 to 1000 nM | 50 to 1000 nM | 50 to 1000 nM | – | COc1cccc(CC(=O)N2CCOC(COc3cc4ncnc(Nc5ccc(Cl)c(Cl)c5)c4cc3OC)C2)c1 (stereo not given)
50 to 1000 nM | 50 to 1000 nM | 50 to 1000 nM | – | COc1cc2c(Nc3ccc(Cl)c(Cl)c3)ncnc2cc1OCC1CN(CCC(C)C)CCCO1 (stereo not given)
< 50 nM | < 50 nM | 50 to 1000 nM | – | COc1cc2c(Nc3ccc(Cl)c(Cl)c3)ncnc2cc1OCC1CN(C2CCN(C)CC2)CCO1 (stereo not given)
50 to 1000 nM | 50 to 1000 nM | 50 to 1000 nM | – | CCCCC(CC)C(=O)N1CCOC(COc2cc3ncnc(Nc4ccc(Cl)c(Cl)c4)c3cc2OC)C1 (stereo not given)
50 to 1000 nM | 50 to 1000 nM | 50 to 1000 nM | – | COc1cc2c(Nc3cccc(Cl)c3F)ncnc2cc1OCC1CN(C)CCO1 (stereo not given)
50 to 1000 nM | 50 to 1000 nM | 50 to 1000 nM | – | COc1cc2c(Nc3ccc(Cl)c(Cl)c3)ncnc2cc1OCC1CN(CCF)CCO1 (stereo not given)
50 to 1000 nM | 50 to 1000 nM | 50 to 1000 nM | – | CN1CCOC(COc2cc3ncnc(Nc4ccc(Cl)c(Cl)c4)c3cc2O)C1 (stereo not given)
50 to 1000 nM | 50 to 1000 nM | 1000 to 20000 nM | – | COc1cc2c(Nc3ccc(Cl)c(Cl)c3)ncnc2cc1OCC1CN(S(=O)(=O)c2ccc(F)cc2)CCO1 (stereo not given)
50 to 1000 nM | 50 to 1000 nM | 50 to 1000 nM | – | CCCC(CCC)C(=O)N1CCOC(COc2cc3ncnc(Nc4ccc(Cl)c(Cl)c4)c3cc2OC)C1 (stereo not given)
50 to 1000 nM | 50 to 1000 nM | 50 to 1000 nM | – | COc1cc2c(Nc3ccc(Cl)c(Cl)c3)ncnc2cc1OCC1CN(C(=O)c2ccc3c(c2)OCO3)CCO1 (stereo not given)
< 50 nM | < 50 nM | 50 to 1000 nM | – | COc1cc2c(Nc3ccc(Cl)c(Cl)c3)ncnc2cc1OCC1CN(CCCOC2CCCCO2)CCCO1 (stereo not given)
50 to 1000 nM | 50 to 1000 nM | 50 to 1000 nM | – | COc1cc2c(Nc3ccc(Cl)c(Cl)c3)ncnc2cc1OCC1OCCN(CC(=O)c2ccccc2)C1=O (stereo not given)
< 50 nM | 50 to 1000 nM | 50 to 1000 nM | – | COc1cc2c(Nc3ccc(Cl)c(Cl)c3)ncnc2cc1OCC1CN(C(=O)c2ccc(Cl)nc2)CCO1 (stereo not given)
< 50 nM | 50 to 1000 nM | 50 to 1000 nM | – | COc1cc2c(Nc3ccc(Cl)c(Cl)c3)ncnc2cc1OCC1CN(C(=O)c2ccoc2)CCO1 (stereo not given)
1000 to 20000 nM | 50 to 1000 nM | 1000 to 20000 nM | – | COc1cc2c(Nc3ccc(Cl)c(Cl)c3)ncnc2cc1OCC1CN(S(=O)(=O)c2ccc(C)cc2)CCO1 (stereo not given)
< 50 nM | < 50 nM | 50 to 1000 nM | – | COc1cc2c(Nc3ccc(Cl)c(Cl)c3)ncnc2cc1OCC1CN(/C(=N/C#N)N2CCN(C)CC2)CCO1 (stereo not given)
< 50 nM | 50 to 1000 nM | 50 to 1000 nM | – | COc1cc2c(Nc3cccc(Br)c3Cl)ncnc2cc1OCC1CN(C)CCO1 (stereo not given)
50 to 1000 nM | 50 to 1000 nM | 50 to 1000 nM | – | COc1cc2c(Nc3ccc(Cl)c(Cl)c3)ncnc2cc1OCC1CN(C(=O)c2cc(F)ccc2F)CCO1 (stereo not given)
1000 to 20000 nM | 1000 to 20000 nM | 1000 to 20000 nM | – | CCCCc1ccc(C(=O)N2CCOC(COc3cc4ncnc(Nc5ccc(Cl)c(Cl)c5)c4cc3OC)C2)cc1 (stereo not given)
< 50 nM | 50 to 1000 nM | 50 to 1000 nM | – | COCCNC(=NC#N)N1CCOC(COc2cc3ncnc(Nc4ccc(Cl)c(Cl)c4)c3cc2OC)C1 (stereo not given)
50 to 1000 nM | 50 to 1000 nM | 50 to 1000 nM | – | CCCC(C)C(=O)N1CCOC(COc2cc3ncnc(Nc4ccc(Cl)c(Cl)c4)c3cc2OC)C1 (stereo not given)
